{"source": "patent US11851670B2", "about": "“Nucleic acid constructs encoding reprogramming factors linked by self-cleaving peptides” (Whitehead Institute for Biomedical Research, priority 2008, dated 2023)", "key": {"ES cells": {"tested_on": "ES cells", "settings": "chemically defined medium, absence of LIF; cited from earlier work"}, "SOX2-ER fusion construct": {"tested_on": "SOX2-ER fusion construct", "test": "Tamoxifen-dependent activation of SOX2-ER fusion construct in transduced fibroblasts", "assay_type": "cell-based, human", "settings": "cells transduced with SOX2-ER fusion construct", "excerpt": "(a) DOX inducible lentivirus vectors: Following the same strategy as used for murine genes we have generated lentiviral vectors that transduce the human OCT4, SOX2, KLF4 and C-MYC c-DNAs either constitutively or under the control of a DOX inducible promoter [Brambrink, 2008 #6877]. To generate a DOX inducible system we infected human fibroblasts with a lentiviral vector carrying the rtTA transactivator. […] (b) Tamoxifen inducible lentivirus vectors: To enable independent inducible control of vectors we also generated OCT4, SOX2 and C-MYC estrogen receptor (ER) fusion constructs by fusing the factors to the estrogen ligand binding domain to allow for tamoxifen dependent expression [Grandori, 1996 #6505]."}, "mouse fibroblasts": {"tested_on": "mouse fibroblasts", "settings": "treatment decreasing global DNA methylation; cited from earlier work"}, "NGFP3 secondary MEFs": {"tested_on": "NGFP3 secondary MEFs", "test": "Effect of drugs on dox-induced reprogramming of secondary MEFs (GFP+ colony count)", "assay_type": "cell-based, mouse", "settings": "dox plus 1 μM compound for two 48 h periods", "excerpt": "We also tested whether the secondary cells could be used to assess the effect of drugs on the efficiency of reprogramming. For this we explored the effects of the DNA demethylating compound 5-Aza-deoxycytidine (5-Aza) and the histone deacetylase inhibitor trichostatin A (TSA). Because of their action on chromatin modifications both small molecules are candidates to improve the 5reprogramming efficiency.\nFor MEF isolation, chimeric embryos were isolated at E13.5 and the head and internal (including reproductive) organs were removed. Remaining tissue was physically dissociated and incubated in trypsin at 37° C. for 20 minutes, after which cells were resuspended in MEF media containing puromycin (2 μg/mL) and expanded for two passages prior to freezing. Secondary MEFs used for the described experiments were thawed and experiments plated 1-2 passages after thawing. Kinetic experiments (FIG. 2) were performed by plating 4×10^4 secondary MEFs per well in 6 well plates and plates were stained or analyzed at the indicated times. Cell density experiments were performed in 12 well plates and GFP+ iPS colonies were scored 4 weeks after dox induction. Single cell efficiency experiments were performed by plating single secondary MEFs onto a layer of wildtype feeder MEFS in 96 well plates prior to dox induction (using limiting dilutions, which were confirmed by eye in replicate plates lacking feeder MEFs). iPS formation was scored 4 weeks later. Representative experiments from 2-3 biological replicates are shown. For 5-Aza and TSA experiments, […] secondary MEFs were plated in 6 well plates (approx 100 cells/mm^2) and pretreated with ES cell media containing 5-Aza (1 μM) or TSA (1 μM) for 48 h. After 48 h, secondary MEFs were cultured in ES cell media plus dox lacking 5-Aza or TSA. MEFS were exposed to 5-Aza or TSA for a second 48 h period between days 8-10 after induction, followed by culture with dox only until scoring GFP+ colonies on day 21."}, "huES cells": {"tested_on": "huES cells", "settings": "cited from earlier work"}}, "data": [{"smiles": "Cc1cc(Nc2ncc3c(n2)N(C)C(=O)N(c2cc(NC(=O)c4cccc(C(F)(F)F)c4)ccc2C)C3)n(C)n1", "note": "[pluripotin]", "values": [{"measurement": "self renewal of ES cells", "setting": "ES cells", "value": "sustains self renewal of ES cells"}]}, {"smiles": "CC/C(=C(\\c1ccccc1)c1ccc(OCCN(C)C)cc1)c1ccccc1", "note": "[tamoxifen]", "values": [{"measurement": "localisation of SOX2 protein after tamoxifen addition", "setting": "SOX2-ER fusion construct", "value": "translocation of the SOX2 protein from the cytoplasm to the nucleus"}]}, {"smiles": "Nc1ncn([C@H]2C[C@H](O)[C@@H](CO)O2)c(=O)n1", "note": "[5-Aza, 5-Aza-deoxycytidine]", "values": [{"measurement": "reprogramming of mouse fibroblasts", "setting": "mouse fibroblasts", "value": "enhance reprogramming of mouse fibroblasts"}, {"measurement": "reprogramming efficiency (number of GFP+ colonies)", "setting": "NGFP3 secondary MEFs; GFP+ colonies scored on day 21", "value": "increased the reprogramming efficiency"}, {"measurement": "reprogramming efficiency (number of GFP+ colonies)", "setting": "NGFP3 secondary MEFs; GFP+ colonies scored on day 21, listed as 5-Aza-deoxycytidine", "value": "substantially enhances the reprogramming efficiency"}]}, {"smiles": "C[C@@H](N)[C@H]1CC[C@H](C(=O)Nc2ccncc2)CC1", "note": "[Y-27632]", "values": [{"measurement": "cloning efficiency", "setting": "huES cells", "value": "increase cloning efficiency"}, {"measurement": "dissociation-induced apoptosis", "setting": "huES cells", "value": "markedly diminish dissociation-induced apoptosis"}]}, {"smiles": "CC(/C=C/C(=O)NO)=C\\[C@@H](C)C(=O)c1ccc(N(C)C)cc1", "note": "[TSA, trichostatin A]", "values": [{"measurement": "reprogramming efficiency (number of GFP+ colonies)", "setting": "NGFP3 secondary MEFs; GFP+ colonies scored on day 21", "value": "no obvious effect on the number of colonies"}]}]}
